This note sets out measurements from a melting point compilation (Tetko et al.; mined from patent text by program, amines drawn as free bases though some values may be those of a salt).

As a reminder, the melting point is the temperature of the solid-liquid transition.

As to `CCCCS(=O)C1CC(=O)N1CC(=O)CCc1ccccc1` (configuration not stated), the melting point lay in the range of 145 to 146 °C.

`CCCCCCCCCCCC(=O)CC(=O)OC` gave a melting point of 29 °C.

For `COc1ccc(-c2[nH]nc3c2C(=O)c2c(NC(=O)CN4CCC(CN)CC4)cccc2-3)cc1`, the melting point was more than 300 °C.

Regarding `CC(C)(C(N)=O)c1ccc(Br)cc1`, the melting point is 139 to 141 °C.

`CC1(C)CCCN(C(=O)[C@H]2C[C@@H](S(=O)(=O)c3ccccc3)[C@@H](c3ccccc3F)N2C(=O)CNC(=O)Nc2cccc(C(=O)O)c2)C1` (racemic): the melting point came out at 258 °C.

Molecule `CCc1nn2ccc3oc(C)cc3c2c1CC#N` displayed a melting point of 156 to 157 °C.

As to `CCN(CC)c1ccc(N)cc1C#N`, the melting point was in the range of 63 to 66 °C.

Molecule `O=C(NO)c1ccc(OC(=O)C2(c3ccccc3)CCCCC2)cc1` gave a melting point of 142 to 144 °C.

Regarding `CS(=O)(=O)Nc1cccc2c(O)ccc(N=Nc3cccc(S(=O)(=O)NCCCCCCBr)c3)c12`, the melting point was 163 to 165 °C.

`CCCCCCCCCCCCn1c2nc(=O)[nH]c(=O)c-2nc2cc(C)c(C)cc21`: the melting point is 223 to 224 °C.

`OCC(O)Cc1nccn1CCCCc1ccc(OCc2coc(/C=C/c3ccc(C(F)(F)F)cc3)n2)cc1` (configuration not stated) came in with a melting point of 142 to 143 °C.

For `O=[N+]([O-])c1ccc2c(ccn2Cc2ccccc2)c1`, the melting point lay in the range of 102 to 104 °C.

In turn, `COC(=O)CC(NC(=O)CC1CCCCC1)C(C)=O` (configuration not stated) displayed a melting point of 75 to 76 °C.

Consider `Cc1cc(SC(C)C)c(NC(=O)CSc2nc3ccccc3o2)c(SC(C)C)n1`, for which the melting point is 151 to 152 °C.

In the case of `CSC1=C(c2ccccc2)C(=O)N(Nc2ccccc2)C1=O`, the melting point was in the range of 86 to 88 °C.

`COC(=O)c1cc(C(C)=O)ccc1OC` registered a melting point of 72 to 74 °C.

`CN1CCN(c2ccc(Nc3ncc4c(n3)S/C(=C/c3ccc(C#N)cc3)C(=O)N4)cc2)CC1`: the melting point was 274 to 276 °C.

Turning to `CCOCn1c(C(OC(C)=O)c2ccccc2)c(C(C)C)c(=O)[nH]c1=O` (configuration not stated), the melting point came out at 158 °C.

As for `CC1=NN(C)C(=O)C1(Br)C(=O)c1ccc(Cl)cc1Cl` (configuration not stated), the melting point fell in the range of 89 to 90 °C.

As to `COCCOC(=O)c1c(F)cccc1S(=O)(=O)NC(=O)Nc1nc(OC)nc(OC)n1`, the melting point was 179 to 182 °C.

In turn, `CCOCCCN(C)Cc1ccc(NC(=O)C2=Cc3cc(-c4ccc(OCC)cc4)ccc3N(C)CC2)cc1` came in with a melting point of 129 to 131 °C.

For `COC(=O)C[C@H](Cc1ccc(-c2ccccc2)cc1)NCP(=O)(OC)OC`, the melting point was determined as 67 °C.

Take `CC(c1oc2ccc(Br)cc2c(=O)c1-c1ccccc1)n1cnc2c(N)ncnc21` (configuration not stated): the melting point lay in the range of 230 to 231 °C.

`COc1ccc(NC(=O)OC(C)(C)C)c(C(=O)C2CC2)c1` gave a melting point of 96 to 97 °C.

`CC(C)N(CCCCS(=O)(=O)CC(=O)O)c1cnc(-c2ccccc2)c(-c2ccccc2)n1` came in with a melting point of 183 to 185 °C.

On to `O=C(c1cccs1)c1cnn2c(-c3cccc(NCc4ccoc4)c3)ccnc12`, for which the melting point is 140 to 144 °C.

Regarding `CC1(C)CCCC(C)(C)N1c1nc(N2CCCC2)cc(N2CCNCC2)n1`, the melting point was in the range of 134 to 137 °C.

Consider `CCc1cc(C#N)ccc1N1C(=O)C(=O)N(C(C)(C)CC)C1=S`, for which the melting point was determined as 173 °C.

In the case of `CCOC(=O)N(C)N1CCc2ccccc2C(Oc2ccc(C(F)(F)F)cc2)C1` (configuration not stated), the melting point lay within 204 to 205 °C.

`CCCCCCCSc1nc(C)c(O)c(C)n1` came in with a melting point of 110 to 111 °C.

In turn, `COc1cc(CCl)c(OCCC(C)CCCC(C)C)cc1CCl` (configuration not stated) came in with a melting point of 65 °C.

Take `CC(=O)N(C)c1ccc(Cl)c(COc2cccn3c(Br)c(C)nc23)c1Cl`: the melting point was 201 to 204 °C.

Molecule `COc1cc2c(c3c1OC(C)(C)C3)C(c1cccc(N)c1)=NC(C)(C)C2` displayed a melting point of 131 to 134 °C.

The molecule `CC(C)Cn1c(=O)n(C)c(=O)c2c(SCCCC(N)=O)n(Cc3cccc4ccccc34)cc21` came in with a melting point of 162 to 165 °C.

Take `O=C1C2CN(Cc3ccccc3)CC2C(=O)N1Cc1ccccc1` (configuration not stated): the melting point amounted to 100 °C.

As for `CC(=O)OCC1CCn2c(c(C3=C(c4coc5ccccc45)C(=O)NC3=O)c3ccccc32)C1` (configuration not stated), the melting point was 234 to 237 °C.

In turn, `Cn1cc(-c2cc(F)c(F)c(OC3SCC(O)C(O)C3O)c2)cn1` (configuration not stated) registered a melting point of 184 °C.

The molecule `COc1cc(Nc2nccc(-c3ccc(NCC(C)(C)CN(C)C)nc3)n2)cc(OC)c1OC` had a melting point of 125 °C.

In turn, `COC1CN(c2ccc(N3C[C@H](CN=[N+]=[N-])OC3=O)cc2F)C1` registered a melting point of 111 to 112 °C.

`CCC(C)Cc1c(-c2ccc([N+](=O)[O-])cc2Cl)c(C)nc2ncnn12` (configuration not stated) came in with a melting point of 158 to 162 °C.

For the molecule `COc1ccc(OC)c2[nH]ccc12`, the melting point lay in the range of 193 to 195 °C.

Take `CC(=O)n1nc(C)c2ccccc21`: the melting point lay within 70 to 71 °C.

`CN(C)Cc1ccc(CSCCNC(=C[N+](=O)[O-])NCCCCCCCCCCCCNC(=C[N+](=O)[O-])NCCSCc2ccco2)o1`: the melting point was in the range of 69 to 72 °C.

For `CCOC(=O)c1c(-c2ccccc2Cl)c2cc(C)cc(C)c2[nH]c1=O`, the melting point lay within 257 to 258 °C.

Regarding `COc1c(C(F)(F)F)cc([N+](=O)[O-])c(NN(C)C)c1[N+](=O)[O-]`, the melting point is 109 to 110 °C.

`Cn1cc(C(=O)c2cnc[nH]2)cc1C(=O)c1ccc(Cl)cc1` yielded a melting point of 198 to 200 °C.

In the case of `O=C1N(Cc2ccccn2)c2cccc(-c3cnc4ccccc4c3)c2C12COc1cc3c(cc12)OCCO3` (configuration not stated), the melting point was in the range of 228 to 230 °C.

Turning to `CN(C)CCn1c(=O)[nH]c2cccnc21`, the melting point fell in the range of 141 to 142 °C.

Turning to `c1ccc2cc3[nH]c(SCc4nccs4)nc3cc2c1`, the melting point was in the range of 153 to 157 °C.

In the case of `O=C(Nc1cccc(C(F)(F)F)c1)C(=O)N1CCC(Cc2ccccc2)CC1`, the melting point was in the range of 87 to 89 °C.

Regarding `CN(C)C(=O)c1csc(N(C)CC#CI)n1`, the melting point was in the range of 148 to 150 °C.

In turn, `CC(=O)c1cc(Cl)c(N=C=O)c(Cl)c1` gave a melting point of 138 to 140 °C.

`N=C(N)c1ccc(C(=O)N2CCCCC2C(=O)N2CCC(OCC(=O)O)CC2)cc1` (configuration not stated): the melting point lay in the range of 233 to 234 °C.

For the molecule `O=c1cc(O)c2c([nH]1)CCCC2`, the melting point is more than 300 °C.

Consider `COC(=O)c1c(C)nn2c(-c3cccc(C(F)(F)F)c3)ccnc12`, for which the melting point was 177 to 179 °C.

`CCCc1c(C(N)=O)sc(SC)c1-c1oncc1-c1ccccc1` registered a melting point of 140 to 141 °C.

In turn, `COC(=O)c1c(C2=NC(C)(C(C)C)C(=O)N2)cccc1[N+](=O)[O-]` (configuration not stated) had a melting point of 159 to 162 °C.

Regarding `CC1=C(C(=O)O)C(c2ccc(F)c(Br)c2)C2=C(CCC2=O)N1` (configuration not stated), the melting point was 211 to 214 °C.

Turning to `CC1CCC2(OC1)OC1CC3C4CCC5CC(=O)CCC5(C)C4CCC3(C)C1C2C` (configuration not stated), the melting point lay in the range of 209 to 211 °C.

As to `COc1ccc(C(=Cc2ccncc2)c2ccncc2)cc1OC1CCCC1`, the melting point was 136 to 138 °C.

The molecule `CC(C)(C)OC(=O)N1CCC(n2nc(-c3c(-c4ccccc4)nn4ccccc34)ccc2=O)CC1` displayed a melting point of 152 to 153 °C.

`CC(C)Nc1cccnc1N1CCN(C(=O)c2ccc(C(=O)NCCN3CCCCC3)cc2)CC1` displayed a melting point of 106 to 107 °C.

In turn, `Clc1ccc2c(N[C@@H]3CCC[C@H](Nc4ccnc5cc(Cl)ccc45)C3)ccnc2c1` returned a melting point of more than 250 °C.

For `CC1Cc2c(N3CCN(C)CC3)c(F)c(N)c3c(=O)c(C(=O)O)cn1c23` (configuration not stated), the melting point was in the range of 240 to 243 °C.

`CC(=O)Nc1cc(I)ccc1C(=O)O` gave a melting point of 229 to 232 °C.

`O=C1[C@H]2CCC[C@H]2N(C(=O)CCCCCBr)c2ccccc2N1Cc1ccccc1` (relative stereo) came in with a melting point of 111 to 112 °C.

`O=C1Nc2ccccc2CCC1Cl` (configuration not stated) had a melting point of 163 to 167 °C.

On to `O=C(O)c1ccc(-c2nnn[nH]2)nc1`, for which the melting point lay within 257 to 259 °C.

Molecule `CCOc1c(Nc2ccncc2)c(=O)c1=O` yielded a melting point of 120 to 125 °C.

With `CS(=O)(=O)c1ccc(-c2cnn(CC(F)(F)F)c(=O)c2Nc2cccc(F)c2)cc1`, the melting point was in the range of 156 to 158 °C.

For `CN1C(=O)CC[C@]2(C)c3ccc(-c4nc5ccccc5s4)cc3CC[C@@H]12`, the melting point was 207 to 212 °C.

For `COC(=O)Cc1nc(-c2ccc(Cl)cc2)oc1Oc1cc(C)ccc1C`, the melting point came out at 113 °C.

For the molecule `Cc1nc2c(c3c1[nH]c1ccccc13)C(=O)CC(C)C2` (configuration not stated), the melting point fell in the range of 218 to 219 °C.

`CN1CCN(CCCNc2ncc3cc(-c4c(Cl)cccc4Cl)c(NC(=O)NCc4ccccc4)nc3n2)CC1` had a melting point of 144 to 148 °C.

With `COc1ccc2c(c1)C(=O)Cc1c(Cl)cccc1S2`, the melting point lay within 117 to 120 °C.

Consider `CN1C(=S)[C@H](NC(=O)OCc2ccccc2)N=C(c2ccccc2)c2ccccc21`, for which the melting point is 128 to 131 °C.

`O=S(=O)(c1ccc(Cl)cc1)N1CCCC1c1ccccc1` (racemic): the melting point is 119 °C.

Take `O=C1C(=O)c2ccc(-c3ccc(C(F)(F)F)cc3)cc2C2=C1SCC1(CCNCC1)O2`: the melting point lay in the range of 190 to 240 °C.

For the molecule `CCc1cc(Cl)cc2[nH]c(=O)c(-c3ccccc3)c(O)c12`, the melting point lay in the range of 284 to 288 °C.

Consider `CCCCOC(=O)[C@@H]1OC(c2ccc(C#Cc3ccc(C4O[C@@H](C(=O)OCCCC)[C@H](C(=O)OCCCC)O4)cc3)cc2)O[C@H]1C(=O)OCCCC`, for which the melting point came out at 54 °C.

In turn, `CN(C)c1cccc(NC(=O)c2cccc(S(=O)(=O)N3CCCCCC3)c2)c1` returned a melting point of 178 to 180 °C.

For `Cn1c(=O)n(CCCN2CCC3(CC2)C(=O)NCN3c2ccccc2)c2ccccc21`, the melting point is 164 °C.

`CCC(C)NCc1nc(-c2ccc(OC)c(OC)c2)c2cc(OC)c(OC)cc2n1` (configuration not stated) showed a melting point of 118 to 120 °C.

`CC(C)(C)S(=O)(=O)NCc1cc(-c2ccc(Cl)c(Cl)c2)n(Cc2ccc(Cl)c(Cl)c2)n1` displayed a melting point of 127 °C.

In turn, `O=C(CCc1ccccc1C(=O)O)Nc1cccc(/C=C/c2nc(C3CCC3)cs2)c1` gave a melting point of 238 to 239 °C.

In the case of `CCC(c1oc2ccccc2c(=O)c1-c1cccc(F)c1)n1cnc2c(N)ncnc21` (configuration not stated), the melting point lay within 102 to 107 °C.

`CC(C)(O)C(=O)Nc1ccc(Nc2ccccc2)cc1` displayed a melting point of 171 to 174 °C.
